Experimental data taken from patent US5102873A (priority 1989, dated 1992).
Values joined by “and” are separate entries in the source; they are usually repeats but may differ in a detail not shown here. Equal entries are not always repeated.

Legend:
vaccinia virus = experiment: microbe, parasite or virus in culture; assay type: cell-based; details: for IC50: Orthopoxvirus vaccinia, Vero, read-out: ID50 (inhibitory dose 50; 50% reduction in virus replication), vaccinia virus in Vero cells, called MIC50; for TI (therapeutic index, MTC/ID50) / Virus Rating (VR): Vero cells; for TI (therapeutic index, MTC/ID50): TI>50 indicates a useful compound; for Virus Rating (VR): VR >=1.0 significant, 0.5-0.9 marginal, <0.5 inactive, repeat lines are repeat tests
[1] = Cytotoxicity of test compound to Vero host cells (minimum toxic concentration); details: monkey, MTC (minimum toxic concentration), footnote: lowest concentration giving 50% reduction in percent survival of viable host cells

SMILES: N=c1c2ncn([C@@H]3O[C@H](CO)[C@@H](O)[C@H]3O)c2ncn1OCc1cccc(Cl)c1.[O-][Cl+3]([O-])([O-])O [Compound 2p, 1-(3-Chlorobenzyloxy)adenosine, perchloric acid salt]
- IC50 (vaccinia virus): 1.08 µg/mL
- TI (therapeutic index, MTC/ID50) (vaccinia virus): 295 and 193
- MCC [1]: > 320 µg/mL

SMILES: Cc1ccc(COn2cnc3c(ncn3[C@@H]3O[C@H](CO)[C@@H](O)[C@H]3O)c2=N)c(C)c1.[O-][Cl+3]([O-])([O-])O [Compound 2cc, 1-(2,4-Dimethylbenzyloxy)adenosine, perchloric acid salt]
- IC50 (vaccinia virus): 0.08 µg/mL
- TI (therapeutic index, MTC/ID50) (vaccinia virus): 4110 and 3890
- Virus Rating (VR) (vaccinia virus): 2.9
- MCC [1]: 320 µg/mL

SMILES: Cc1cccc(COn2cnc3c(ncn3[C@@H]3O[C@H](CO)[C@@H](O)[C@H]3O)c2=N)c1.[O-][Cl+3]([O-])([O-])O [Compound 2a, 1-(3-Methylbenzyloxy)adenosine, perchloric acid salt]
- IC50 (vaccinia virus): 0.41 µg/mL
- TI (therapeutic index, MTC/ID50) (vaccinia virus): 781 and 487
- Virus Rating (VR) (vaccinia virus): > 2.4
- MCC [1]: > 320 µg/mL

SMILES: N=c1c2ncn([C@@H]3O[C@H](CO)[C@@H](O)[C@H]3O)c2ncn1OCc1cc(F)ccc1F.[O-][Cl+3]([O-])([O-])O [Compound 2gg, 1-(2,5-Difluorobenzyloxy)adenosine, perchloric acid salt]
- IC50 (vaccinia virus): 1.77 µg/mL
- TI (therapeutic index, MTC/ID50) (vaccinia virus): 180 and 115
- MCC [1]: > 320 µg/mL

SMILES: N#Cc1ccc(COn2cnc3c(ncn3[C@@H]3O[C@H](CO)[C@@H](O)[C@H]3O)c2=N)cc1.[O-][Cl+3]([O-])([O-])O [Compound 2v, 1-(4-Cyanobenzyloxy)adenosine, perchloric acid salt]
- IC50 (vaccinia virus): 3.2 µg/mL
- TI (therapeutic index, MTC/ID50) (vaccinia virus): 100 and 134
- MCC [1]: > 320 µg/mL

SMILES: N=c1c2ncn([C@@H]3O[C@H](CO)[C@@H](O)[C@H]3O)c2ncn1OCc1ccccc1[N+](=O)[O-].[O-][Cl+3]([O-])([O-])O [Compound 2q, 1-(2-Nitrobenzyloxy)adenosine, perchloric acid salt]
- IC50 (vaccinia virus): 1.03 µg/mL
- TI (therapeutic index, MTC/ID50) (vaccinia virus): 310 and 181
- MCC [1]: > 320 µg/mL
